IC50, Ki and inhibition data for eight compounds are collected here from ChEMBL document CHEMBL1131846, “Selective A1-adenosine receptor antagonists identified using yeast Saccharomyces cerevisiae functional assays” (Bioorg Med Chem Lett, 1999).

In general, IC50 refers to the concentration at which inhibition is half-maximal. A higher IC50 goes with a need for much substance. For orientation: Ki means a dissociation constant, usually derived from enzyme kinetics or from competition with a known ligand. Low values mean tighter binding, high ones weaker binding. For orientation: inhibition means the change of the read-out against control, counted positive when it falls. Higher therefore signals strong suppression.

The structures appear in SMILES notation.

For test [1], the target named is T1, Adenosine receptor A2a (Homo sapiens, UniProt P29274). As to the kind of experiment: Inhibitory activity against binding of [3H]CGS-21680 to human A2a receptor (hA2a) using competition binding assay.
T1 sequence (P29274 whole entry): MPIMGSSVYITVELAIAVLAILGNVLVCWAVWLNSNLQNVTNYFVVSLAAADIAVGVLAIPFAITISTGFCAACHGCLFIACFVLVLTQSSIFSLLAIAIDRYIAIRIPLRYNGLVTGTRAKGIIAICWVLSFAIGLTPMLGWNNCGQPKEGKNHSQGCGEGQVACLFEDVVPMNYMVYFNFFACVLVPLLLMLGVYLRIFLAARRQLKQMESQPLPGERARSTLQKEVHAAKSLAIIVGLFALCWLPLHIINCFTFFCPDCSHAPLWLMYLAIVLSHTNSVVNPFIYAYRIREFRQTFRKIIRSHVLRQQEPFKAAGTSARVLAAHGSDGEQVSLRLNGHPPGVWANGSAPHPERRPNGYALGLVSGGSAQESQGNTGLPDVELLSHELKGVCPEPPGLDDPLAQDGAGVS
Test [2] concerns the target T1, Adenosine receptor A2a. As to the kind of experiment: Inhibitory activity against membranes from HEK293 cells stably expressing the human A2a receptor (hA2a). It counts as cell-based.
The target of test [3] is T1, Adenosine receptor A2a. The experiment in a line: Inhibitory activity against binding of the [3H]CGS-21680 to human A2a receptor (hA2a) radioligands using competition binding assay.
Test [4] addresses T2, Adenosine receptor A1 (Homo sapiens, UniProt P30542).
T2 sequence (P30542 whole entry): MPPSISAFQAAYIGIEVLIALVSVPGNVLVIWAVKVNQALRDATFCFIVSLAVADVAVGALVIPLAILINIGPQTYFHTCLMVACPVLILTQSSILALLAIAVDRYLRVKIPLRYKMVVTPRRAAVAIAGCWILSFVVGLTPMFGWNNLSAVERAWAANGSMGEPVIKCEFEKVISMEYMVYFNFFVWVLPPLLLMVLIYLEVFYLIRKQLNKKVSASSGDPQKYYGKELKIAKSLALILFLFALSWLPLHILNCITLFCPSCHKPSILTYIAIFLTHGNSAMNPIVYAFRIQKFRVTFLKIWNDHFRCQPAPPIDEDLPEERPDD
The experiment in a line: Inhibitory activity against binding of [3H]DPCPX to human A1 receptor (hA1) using competition binding assay.

Test [5] concerns the target T2, Adenosine receptor A1. The experiment in a line: Inhibitory activity against membranes from yeast cells transformed with human A1 receptor (hA1). The test is classed as cell-based.
In test [6] the target is T2, Adenosine receptor A1. As to the kind of experiment: Inhibitory activity against binding of the [3H]DPCPX to human A1 receptor (hA1) radioligands using competition binding assay.
Test [7] deals with T3, Adenosine receptor A1 (Homo sapiens) (UniProt P30542).
T3 sequence (whole entry): T2 sequence (P30542 whole entry)
As to the kind of experiment: Inhibitory activity against binding of the [3H]DPCPX to human A1 receptor (hA1) radioligands using competition binding assay at a concentration of 10 uM.

In test [8] the target is T1, Adenosine receptor A2a. As to the kind of experiment: Inhibitory activity against binding of [3H]CGS-21680 to human A2a receptor (hA2a) using competition binding assay at a concentration of 10 uM.
Test [9] concerns the target T1, Adenosine receptor A2a. As to the kind of experiment: Inhibitory activity against membranes from HEK293 cells stably expressing the human A2a receptor (hA2a) at a concentration of 10 uM. The test is classed as cell-based.
Test [10] deals with T3, Adenosine receptor A1 (Homo sapiens). As to the kind of experiment: Inhibitory activity against binding of [3H]DPCPX to human A1 receptor (hA1) using competition binding assay at a concentration of 10 uM.
For test [11], the target named is T1, Adenosine receptor A2a. The experiment in a line: Inhibitory activity against binding of the [3H]CGS-21680 to human A2a receptor (hA2a) radioligands using competition binding assay at a concentration of 10 uM.

As for `CC(=O)NCCNc1nc(-c2ccccc2)nc2[nH]c(C)c(C)c12`, the IC50 on Adenosine receptor A2a [1] and at Adenosine receptor A2a [2] was 48 nM each time. The compound further showed a Ki on Adenosine receptor A2a [3] of 23 nM.
In the case of `Cc1[nH]c2nc(-c3ccccc3)nc(N[C@H](CO)CC(C)C)c2c1C`, the IC50 was 1910 nM at Adenosine receptor A1 [4], 3400 nM on Adenosine receptor A2a [1], 2680 nM against Adenosine receptor A2a [2] and 1750 nM against Adenosine receptor A1 [5]. Also, the Ki was found to be 951 nM at Adenosine receptor A1 [6] and 1140 nM at Adenosine receptor A2a [3].
For the compound `Cc1[nH]c2nc(-c3ccccc3)nc(NCCCN3CCCC3=O)c2c1C`, the inhibition in test [7] was 75%; at Adenosine receptor A2a [8], 54%; against Adenosine receptor A2a [9] it was 58%; in test [10], 75%; on Adenosine receptor A2a [11], 54%. On Adenosine receptor A1 [5], this compound returned an IC50 of 5650 nM.
For `Cc1[nH]c2nc(-c3ccccc3)nc(N[C@@H]3Cc4ccccc4[C@H]3O)c2c1C`, the results for the IC50 at Adenosine receptor A1 [4], against Adenosine receptor A2a [2] and on Adenosine receptor A1 [5] were 1810 nM, 3220 nM and 1700 nM, respectively. The inhibition on Adenosine receptor A2a [8] and at Adenosine receptor A2a [11] was 59% throughout. This compound displayed a Ki on Adenosine receptor A1 [6] of 896 nM.
Turning to `Cc1nc2nc(-c3ccccc3)[nH]c(N[C@H](C)c3ccccc3)c-2c1C`, the IC50 at Adenosine receptor A1 [4] amounted to 1980 nM; at Adenosine receptor A2a [2], 3880 nM; at Adenosine receptor A1 [5], 1610 nM. Moreover, the inhibition at Adenosine receptor A2a [8] and on Adenosine receptor A2a [11] was 61% throughout. Also, on Adenosine receptor A1 [6], affinity was put at a Ki of 981 nM.
`Cc1[nH]c2nc(-c3ccccc3)nc(NCc3ccncc3)c2c1C`: the IC50 at Adenosine receptor A1 [4] is 262 nM; on Adenosine receptor A2a [1] it was 1710 nM; on Adenosine receptor A2a [2] it was 2010 nM; on Adenosine receptor A1 [5] it was 222 nM. The Ki at Adenosine receptor A1 [6] was 132 nM; at Adenosine receptor A2a [3], 811 nM.
For `Cc1[nH]c2nc(-c3ccccc3)nc(NCCN3CCNC3=O)c2c1C`, the IC50 came out at 364 nM at Adenosine receptor A1 [4], 604 nM at Adenosine receptor A2a [1], 725 nM on Adenosine receptor A2a [2] and 422 nM against Adenosine receptor A1 [5]. In addition, the Ki on Adenosine receptor A1 [6] is 144 nM; on Adenosine receptor A2a [3], 215 nM.
Turning to `Cc1[nH]c2nc(-c3ccccc3)nc(N[C@@H]3CCCCNC3=O)c2c1C`, the IC50 amounted to 1540 nM on Adenosine receptor A1 [4], 2060 nM on Adenosine receptor A2a [1], 2110 nM against Adenosine receptor A2a [2] and 1260 nM against Adenosine receptor A1 [5]. Also, the Ki at Adenosine receptor A1 [6] worked out at 771 nM; on Adenosine receptor A2a [3], 962 nM.
